Patent publication US20230285340A1, “NEPRILYSIN INHIBITORS” (THERAVANCE BIOPHARMA R&D IP, LLC, priority 2011, published 2023)

The molecules below were run against human NEP (Homo sapiens (Human), UniProt P08473) (assay: In vitro enzyme inhibition assay at human NEP (Assay 1)). Conditions: comparative examples, exact values.
Format: biochemical

Row | Structure (SMILES) | pKi
1 | C[C@H](C[C@@H](Cc1ccc(-c2ccccc2)cc1)NC(=O)C(=O)O)C(=O)O [Comparative Compound A, (2R,4S)-5-Biphenyl-4-yl-2-methyl-4-(oxalyl-amino)-pentanoic Acid, reference compound] | 8.2

Same assay, conditions: reported as ranges

Row | pKi | Structure (SMILES)
2 | ≥9 | C[C@@](CO)(C[C@@H](Cc1ccc(-c2cc(Cl)ccc2F)cc1)NC(=O)C(=O)O)C(=O)O [Example 11-2, (2S,4R)-5-(5′-Chloro-2′-fluorobiphenyl-4-yl)-2-hydroxymethyl-2-methyl-4-(oxalyl-amino)pentanoic acid]
3 | ≥9 | CCOC(=O)[C@H](O)C[C@@H](Cc1ccc(-c2cccc(Cl)c2)cc1Cl)NC(=O)C(=O)O [Example 5-17, (2R,4R)-5-(3,3′-Dichlorobiphenyl-4-yl)-2-hydroxy-4-(oxalylamino)pentanoic acid ethyl ester]
4 | 7.0-7.9 | C[C@@](CO)(C[C@@H](Cc1ccc(-c2ccc(F)cc2)cc1)NC(=O)C(=O)O)C(=O)O [Example 11-3, (2S,4R)-5-(4′-Fluorobiphenyl-4-yl)-2-hydroxymethyl-2-methyl-4-(oxalylamino)pentanoic acid]
5 | 8.0-8.9 | C[C@@](CO)(C[C@@H](Cc1ccc(-c2ccccc2F)cc1)NC(=O)C(=O)O)C(=O)O [Example 11-1, (2S,4R)-5-(2′-Fluorobiphenyl-4-yl)-2-hydroxymethyl-2-methyl-4-(oxalylamino)pentanoic acid]

Further lines, the molecule ahead of its results:

Row | Structure (SMILES) | pKi
6 | CCOC(=O)C(=O)N[C@H](Cc1ccc(-c2cc(Cl)ccc2F)cc1)C[C@@H](O)C(=O)O [Example 5-14, (2R,4R)-5-(5′-Chloro-2′-fluorobiphenyl-4-yl)-4-(ethoxyoxalylamino)-2-hydroxy-pentanoic acid] | ≥9
7 | O=C(O)C(=O)N[C@H](Cc1ccc(-c2cc(Cl)ccc2F)cc1)C[C@@H](O)C(=O)O [Example 5-5, (2R,4R)-5-(5′-Chloro-2′-fluorobiphenyl-4-yl)-2-hydroxy-4-(oxalylamino)pentanoic acid] | ≥9
8 | CC(C)OC(=O)C(=O)N[C@H](Cc1ccc(-c2cc(Cl)ccc2F)cc1)C[C@@H](O)C(=O)O [Example 5-15, (2R,4R)-5-(5′-Chloro-2′-fluorobiphenyl-4-yl)-2-hydroxy-4-(isopropoxyoxalyl-amino)-pentanoic acid] | ≥9
9 | Cc1ccc(Cl)cc1-c1ccc(C[C@H](C[C@@H](O)C(=O)O)NC(=O)C(=O)O)cc1 [Example 5-1, (2R,4R)-5-(5′-Chloro-2′-methylbiphenyl-4-yl)-2-hydroxy-4-(oxalylamino)-pentanoic acid] | ≥9
10 | O=C(O)C(=O)N[C@H](Cc1ccc(-c2cccc(Cl)c2)cc1Cl)C[C@@H](O)C(=O)O [Example 5-9, (2R,4R)-5-(3,3′-Dichlorobiphenyl-4-yl)-2-hydroxy-4-(oxalylamino)pentanoic acid] | ≥9
11 | CC(C)COC(=O)C(=O)N[C@H](Cc1ccc(-c2cccc(Cl)c2)cc1)C[C@@](C)(CO)C(=O)O [Example 11-4, (2S,4R)-5-(3′-Chlorobiphenyl-4-yl)-2-hydroxymethyl-4-(isobutoxyoxalyl-amino)-2-methylpentanoic acid] | 8.0-8.9
12 | O=C(O)C(=O)NN(Cc1ccc(-c2cc(Cl)ccc2F)cc1Cl)C[C@@H](O)C(=O)O [Example 5-13, (R)-3-[N-(3,5′-Dichloro-2′-fluorobiphenyl-4-ylmethyl)-N′-oxalyl-hydrazino]-2-hydroxypropionic acid] | ≥9
